Patent US6429173B1, “Defloration agent for apple trees” (Agro-Kanesho Co., Ltd., priority 1998, dated 2002)

Test system: apple tree (variety: Fuji)
Experiment: Defloration effect (percentage of remaining fruits) after spraying a flowering apple branch
Format: in vivo
Conditions: Low temperature condition (14.6° C.); ethephon alone 100 ppm, compound (I) 0 ppm; 30 days after spraying
Description: The ME preparation and ethephon preparation produced as described above were mixed together to obtain an application solution.
A branch having about 50 bunches of flowers was selected from a 13-year old apple tree (variety: Fuji). The application solution produced as described above was sprayed over the whole branch with a knapsack sprayer on the day after the full blossom of the central flower. The evaluation results are shown by percentages of remaining fruits (both central and lateral fruits) calculated by the formula shown below. The phytotoxicity was determined on the basis of defoliation, discolored leaves, state of leaves and also state of russet, and the results were classified into the following 5 ranks (− to +++).
Percentage of remaining fruits ≈ number of normal fruits on the test day/number of flowers on the treatment day × 100

Compound: O=P(O)(O)CCCl [Ethephon, 2-chloroethylphosphonic acid]
- Fruit setting rate (%) Central fruit: 83%
- Fruit setting rate (%) Lateral fruit: 42%
